Test results taken from patent US20230312550A1, “N-(2-(4-CYANOTHIAZOLIDIN-3-YL)-2-OXOETHYL)-QUINOLINE-4-CARBOXAMIDES” (AstraZeneca AB, priority 2020, published 2023).
Values after ≈ are worked out from the molar mass of the structure shown.

How the values were obtained:
hFAP (M39-A757) = hFAP (M39-A757) (Homo sapiens (Human), UniProt Q12884); test: hFAP binding assay (surface plasmon resonance); conditions: SPR, 20° C.; for hFAP Binding assay k(off) / hFAP Binding assay k(on): single cycle kinetics; for Kd: n = 1 or geometric mean n = 2-4
FAP = FAP (Homo sapiens (Human), UniProt Q12884); test: hFAP inhibition assay; type: biochemical; conditions: hFAP […], Ala-Pro-AMC 20 μM; n = 1 or geometric mean n = 2-3
Procedure: 384 low volume black plates (Greiner #784076) were used. 4 μL, 0.48 nM enzyme solution (100 mM Tris HCl, 100 mM NaCl, 0.05% Chaps, pH 7.4) was added to 40 nL compounds (in DMSO) at 10 CR, 3 fold dilution series from 50 μM FAC. Plates were incubated for 15 min at rt in dark. 4 μL, 40 μM substrate solution (100 mM Tris HCl, 100 mM NaCl, 0.05% Chaps, pH 7.4) was added to each well. Plates were centrifuged at 1000 rpm and incubated for 30 min at rt in dark. The plates were read on a PHERAstar® reader with excitation 340 nm and emission 460 nm. Data were analyzed in Genedata Screener®. IC50 values were determined by plotting % inhibition versus log compound concentration and using a one site dose response model.

[1] = molecular target: human Fibroblast activation protein alpha (hFAP) (Homo sapiens (Human), UniProt Q12884); test: hFAP inhibition assay (tight binders); type: biochemical; conditions: Ala-Pro-AMC 20 μM, n = 1 or geometric mean n = 2-6; further: hFAP 2.4 pM
Procedure: The plates were read on a PHERAstar® reader with excitation 340 nm and emission 460 nm. Data were analyzed in Genedata Screener®. IC50 values were determined by plotting % inhibition versus log compound concentration and using a one site dose response model.

[2] = Metabolic stability in human liver microsomes (HLM); conditions: human
Procedure: Metabolic stability in HLM was measured as described in J Comput Aided Mol Des 2015, 29, 795.

[3] = molecular target: Prolyl endopeptidase, Prolyl Oligopeptidase (hPREP) (Homo sapiens (Human), UniProt P48147); test: hPrep inhibition assay; type: biochemical; conditions: hPREP 0.6 nM, Z-Gly-Pro-amino-methylcoumarin 50 μM; read-out: PREP IC50
How it was run: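 Fluorogenic read-out (340 nm excitation, 460 nm emission) after 20 min at rt, using 50 μM final Z-Gly-Pro-aminomethylcoumarin and 0.6 nM final enzyme, following 15 min compound preincubation. Buffer pH 7.5 with glutathione and Triton X-100. IC50 via one-site model on % inhibition vs log concentration.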

Kinetic solubility = conditions: kinetic from dmso stock
Procedure: Kinetic solubility was measured as described in Comput Aided Mol Des 2015, 29, 795.

[4] = Metabolic stability in rat hepatocytes (rHep); conditions: n = 1 or geometric mean of n = 2-3
[5] = HLM CLint, n = 1 or average of n = 2-3
[6] = Solubility, kinetic solubility, n = 1 or average of n = 2-3

Chain of Prolyl endopeptidase, Prolyl Oligopeptidase (hPREP) (P48147 whole entry): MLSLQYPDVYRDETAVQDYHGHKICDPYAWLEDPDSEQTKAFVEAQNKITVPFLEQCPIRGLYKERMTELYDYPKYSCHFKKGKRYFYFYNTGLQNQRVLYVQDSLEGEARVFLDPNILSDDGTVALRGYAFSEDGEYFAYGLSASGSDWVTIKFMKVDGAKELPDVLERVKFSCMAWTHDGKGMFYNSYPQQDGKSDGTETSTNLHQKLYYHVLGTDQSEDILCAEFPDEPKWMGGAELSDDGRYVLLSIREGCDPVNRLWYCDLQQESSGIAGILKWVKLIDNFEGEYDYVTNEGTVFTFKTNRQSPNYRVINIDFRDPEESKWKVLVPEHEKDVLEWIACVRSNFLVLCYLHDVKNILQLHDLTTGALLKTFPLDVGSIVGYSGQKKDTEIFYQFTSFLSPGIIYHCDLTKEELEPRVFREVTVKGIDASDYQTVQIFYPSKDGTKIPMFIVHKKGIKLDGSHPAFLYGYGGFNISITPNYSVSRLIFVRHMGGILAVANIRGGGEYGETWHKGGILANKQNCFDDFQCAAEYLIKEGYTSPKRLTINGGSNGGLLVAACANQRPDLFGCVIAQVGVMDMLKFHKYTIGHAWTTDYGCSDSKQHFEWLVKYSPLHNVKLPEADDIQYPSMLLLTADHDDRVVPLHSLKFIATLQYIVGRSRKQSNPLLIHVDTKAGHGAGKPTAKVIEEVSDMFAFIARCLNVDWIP
Chain of hFAP (M39-A757) (Q12884 39-757): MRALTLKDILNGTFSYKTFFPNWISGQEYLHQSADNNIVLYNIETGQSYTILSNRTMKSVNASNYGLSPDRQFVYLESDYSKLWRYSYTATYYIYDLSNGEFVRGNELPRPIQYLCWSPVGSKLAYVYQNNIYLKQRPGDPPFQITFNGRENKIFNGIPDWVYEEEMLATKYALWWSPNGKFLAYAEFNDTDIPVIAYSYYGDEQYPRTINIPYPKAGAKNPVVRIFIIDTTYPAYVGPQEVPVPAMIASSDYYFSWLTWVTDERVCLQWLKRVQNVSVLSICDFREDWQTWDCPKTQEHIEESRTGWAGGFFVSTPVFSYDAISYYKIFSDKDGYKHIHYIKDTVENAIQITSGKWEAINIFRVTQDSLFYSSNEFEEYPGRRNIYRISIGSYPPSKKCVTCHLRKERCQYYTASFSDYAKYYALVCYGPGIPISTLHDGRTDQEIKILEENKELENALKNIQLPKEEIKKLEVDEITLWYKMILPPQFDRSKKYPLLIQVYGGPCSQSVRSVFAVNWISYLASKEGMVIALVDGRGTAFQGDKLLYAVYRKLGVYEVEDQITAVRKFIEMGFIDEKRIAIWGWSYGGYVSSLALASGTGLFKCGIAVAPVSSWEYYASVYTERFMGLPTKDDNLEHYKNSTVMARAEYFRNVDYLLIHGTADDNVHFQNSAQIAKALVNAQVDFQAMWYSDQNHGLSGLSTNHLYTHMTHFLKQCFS
Chain of human Fibroblast activation protein alpha (hFAP) (Q12884 38-760): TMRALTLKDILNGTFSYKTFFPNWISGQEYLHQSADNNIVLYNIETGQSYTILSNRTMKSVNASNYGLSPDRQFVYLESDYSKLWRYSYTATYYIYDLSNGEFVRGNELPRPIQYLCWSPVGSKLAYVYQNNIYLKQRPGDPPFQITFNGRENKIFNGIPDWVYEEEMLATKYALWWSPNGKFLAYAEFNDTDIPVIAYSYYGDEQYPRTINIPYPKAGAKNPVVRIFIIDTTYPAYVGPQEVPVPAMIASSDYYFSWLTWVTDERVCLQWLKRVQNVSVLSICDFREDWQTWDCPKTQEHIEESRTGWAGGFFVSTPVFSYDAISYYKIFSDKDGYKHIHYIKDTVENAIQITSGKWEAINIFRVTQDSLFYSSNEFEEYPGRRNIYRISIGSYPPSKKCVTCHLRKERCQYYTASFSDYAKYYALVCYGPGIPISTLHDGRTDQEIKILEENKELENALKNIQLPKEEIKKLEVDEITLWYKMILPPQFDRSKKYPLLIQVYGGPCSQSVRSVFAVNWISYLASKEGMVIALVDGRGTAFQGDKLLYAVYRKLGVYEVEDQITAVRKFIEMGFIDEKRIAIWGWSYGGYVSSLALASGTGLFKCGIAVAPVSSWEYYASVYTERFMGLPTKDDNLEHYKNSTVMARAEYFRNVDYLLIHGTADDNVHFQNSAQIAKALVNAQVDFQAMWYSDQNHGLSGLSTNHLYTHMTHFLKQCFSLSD
Chain of FAP (Q12884 38-760): as above

Row | Structure (SMILES) | hFAP Binding assay k(off) (hFAP (M39-A757)) | hFAP Binding assay k(on) (hFAP (M39-A757)) | Kd (hFAP (M39-A757)) | IC50 (FAP) | IC50 [1] | microsomal CLint [2, 5] | IC50 [3] | solubility (Kinetic solubility; [6]) | rHep CLint [4] | microsomal CLint [2] | solubility (Kinetic solubility)
1 | CC1(F)CCN(c2ccc3nccc(C(=O)NCC(=O)N4CSC[C@H]4C#N)c3c2)CC1 [Example 34, (R)—N-(2-(4-Cyanothiazolidin-3-yl)-2-oxoethyl)-6-(4-fluoro-4-methyl-piperidin-1-yl)quinoline-4-carboxamide] | 0.000082 s⁻¹ | 2200000 M⁻¹ s⁻¹ | 0.057 nM | 0.27 nM | 0.22 nM | 38 µL/min/mg | 430 nM | 770 µM (≈ 340 µg/mL) | 33 μL/min/1E6 | – | –
2 | N#C[C@@H]1CSCN1C(=O)CNC(=O)c1ccnc2ccc(N3CCC(F)(F)CC3)cc12 [Example 35, (R)—N-(2-(4-Cyanothiazolidin-3-yl)-2-oxoethyl)-6-(4,4-difluoropiperidin-1-yl)quinoline-4-carboxamide] | 0.00010 s⁻¹ | 900000 M⁻¹ s⁻¹ | 0.1 nM | 0.47 nM | 0.17 nM | 63 µL/min/mg | 1700 nM | 600 µM (≈ 267 µg/mL) | 64 μL/min/1E6 | – | –
3 | N#C[C@@H]1CSCN1C(=O)CNC(=O)c1ccnc2ccc(N3CCCC(F)(F)C3)cc12 [Example 36, (R)—N-(2-(4-Cyanothiazolidin-3-yl)-2-oxoethyl)-6-(3,3-difluoropiperidin-1-yl)quinoline-4-carboxamide] | 0.000090 s⁻¹ | 3000000 M⁻¹ s⁻¹ | 0.053 nM | 0.24 nM | 0.084 nM | 48 µL/min/mg | 400 nM | < 98 µM | 19 μL/min/1E6 | – | –
4 | CC1(CF)CCN(c2ccc3nccc(C(=O)NCC(=O)N4CSC[C@H]4C#N)c3c2)CC1 [Example 37, (R)—N-(2-(4-Cyanothiazolidin-3-yl)-2-oxoethyl)-6-(4-(fluoromethyl)-4-methylpiperidin-1-yl)quinoline-4-carboxamide] | 0.000030 s⁻¹ | 1000000 M⁻¹ s⁻¹ | 0.028 nM | 0.22 nM | 0.19 nM | 66 µL/min/mg | 270 nM | 210 µM (≈ 95.7 µg/mL) | 30 μL/min/1E6 | – | –
5 | N#C[C@@H]1CSCN1C(=O)CNC(=O)c1ccnc2ccc(N3CCC(C(F)(F)F)CC3)cc12 [Example 39, (R)—N-(2-(4-Cyanothiazolidin-3-yl)-2-oxoethyl)-6-(4-(trifluoromethyl)-piperidin-1-yl)quinoline-4-carboxamide] | 0.00016 s⁻¹ | 4900000 M⁻¹ s⁻¹ | 0.04 nM | 0.28 nM | 0.1 nM | 120 µL/min/mg | 500 nM | 22 µM (≈ 10.5 µg/mL) | 31 μL/min/1E6 | – | –
6 | N#C[C@@H]1CSCN1C(=O)CNC(=O)c1ccnc2ccc(N3CCCC[C@H]3CF)cc12 [Example 45, N-(2-((R)-4-Cyanothiazolidin-3-yl)-2-oxoethyl)-6-((S)-2-(fluoromethyl)-piperidin-1-yl)quinoline-4-carboxamide] | 0.00018 s⁻¹ | 5400000 M⁻¹ s⁻¹ | 0.048 nM | 0.2 nM | 0.14 nM | 260 µL/min/mg | 190 nM | 340 µM (≈ 150 µg/mL) | 160 μL/min/1E6 | – | –
7 | N#C[C@@H]1CSCN1C(=O)CNC(=O)c1ccnc2ccc(N3CCCC4(CC4)C3)cc12 [Example 46, (R)—N-(2-(4-Cyanothiazolidin-3-yl)-2-oxoethyl)-6-(5-azaspiro[2.5]octan-5-yl)quinoline-4-carboxamide] | 0.000062 s⁻¹ | 3000000 M⁻¹ s⁻¹ | 0.02 nM | 0.29 nM | 0.082 nM | – | 110 nM | – | 72 μL/min/1E6 | 190 µL/min/mg | 190 µM (≈ 82.8 µg/mL)
8 | CC1(C)CCN(c2ccc3nccc(C(=O)NCC(=O)N4CSC[C@H]4C#N)c3c2)C1 [Example 48, (R)—N-(2-(4-Cyanothiazolidin-3-yl)-2-oxoethyl)-6-(3,3-dimethylpyrrolidin-1-yl)quinoline-4-carboxamide] | 0.000089 s⁻¹ | 1400000 M⁻¹ s⁻¹ | 0.067 nM | 0.29 nM | 0.11 nM | 89 µL/min/mg | 170 nM | 18 µM (≈ 7.62 µg/mL) | 51 μL/min/1E6 | – | –
9 | N#C[C@@H]1CSCN1C(=O)CNC(=O)c1ccnc2ccc(N3CCC4(CC4)C3)cc12 [Example 49, (R)—N-(2-(4-Cyanothiazolidin-3-yl)-2-oxoethyl)-6-(5-azaspiro[2.4]heptan-5-yl)quinoline-4-carboxamide] | 0.00017 s⁻¹ | 8800000 M⁻¹ s⁻¹ | 0.02 nM | 0.19 nM | 0.041 nM | – | 340 nM | – | 48 μL/min/1E6 | 58 µL/min/mg | 13 µM (≈ 5.48 µg/mL)
10 | N#C[C@@H]1CSCN1C(=O)CNC(=O)c1ccnc2ccc(N3CC[C@H](F)C3)cc12 [Example 51, N-(2-((R)-4-Cyanothiazolidin-3-yl)-2-oxoethyl)-6-((S)-3-fluoropyrrolidin-1-yl)quinoline-4-carboxamide] | 0.00011 s⁻¹ | 5600000 M⁻¹ s⁻¹ | 0.021 nM | 0.21 nM | 0.064 nM | 14 µL/min/mg | 130 nM | 56 µM (≈ 23.2 µg/mL) | 24 μL/min/1E6 | – | –
11 | N#C[C@@H]1CSCN1C(=O)CNC(=O)c1ccnc2ccc(N3CC[C@@H](F)C3)cc12 [Example 52, N-(2-((R)-4-Cyanothiazolidin-3-yl)-2-oxoethyl)-6-((R)-3-fluoropyrrolidin-1-yl)quinoline-4-carboxamide] | 0.00019 s⁻¹ | 6800000 M⁻¹ s⁻¹ | 0.044 nM | 0.2 nM | 0.045 nM | 22 µL/min/mg | 400 nM | 57 µM (≈ 23.6 µg/mL) | 21 μL/min/1E6 | – | –
12 | N#C[C@@H]1CSCN1C(=O)CNC(=O)c1ccnc2ccc(N3CC4CCCC4C3)cc12 (stereo partly drawn) [Example 53, N-(2-((R)-4-Cyanothiazolidin-3-yl)-2-oxoethyl)-6-(hexahydrocyclopenta[c]pyrrol-2(1H)-yl)quinoline-4-carboxamide] | 0.000050 s⁻¹ | 680000 M⁻¹ s⁻¹ | 0.074 nM | 0.27 nM | 0.18 nM | 120 µL/min/mg | 170 nM | 2.6 µM (≈ 1.13 µg/mL) | 71 μL/min/1E6 | – | –
13 | C[C@H]1CCN(c2ccc3nccc(C(=O)NCC(=O)N4CSC[C@H]4C#N)c3c2)C1 [Example 54, N-(2-((R)-4-Cyanothiazolidin-3-yl)-2-oxoethyl)-6-((S)-3-methylpyrrolidin-1-yl)quinoline-4-carboxamide] | 0.00023 s⁻¹ | 6200000 M⁻¹ s⁻¹ | 0.045 nM | 0.22 nM | 0.062 nM | 57 µL/min/mg | 300 nM | 13 µM (≈ 5.32 µg/mL) | 49 μL/min/1E6 | – | –
14 | C[C@@H]1CCN(c2ccc3nccc(C(=O)NCC(=O)N4CSC[C@H]4C#N)c3c2)C1 [Example 55, N-(2-((R)-4-Cyanothiazolidin-3-yl)-2-oxoethyl)-6-((R)-3-methylpyrrolidin-1-yl)quinoline-4-carboxamide] | 0.00025 s⁻¹ | 6700000 M⁻¹ s⁻¹ | 0.036 nM | 0.25 nM | 0.083 nM | 55 µL/min/mg | 440 nM | 11 µM (≈ 4.5 µg/mL) | 63 μL/min/1E6 | – | –
15 | N#C[C@@H]1CSCN1C(=O)CNC(=O)c1ccnc2ccc(N3CCC[C@H]3C(F)(F)F)cc12 [Example 56, N-(2-((R)-4-Cyanothiazolidin-3-yl)-2-oxoethyl)-6-((S)-2-(trifluoromethyl)-pyrrolidin-1-yl)quinoline-4-carboxamide] | 0.00011 s⁻¹ | 540000 M⁻¹ s⁻¹ | 0.14 nM | 0.44 nM | 0.19 nM | > 300 µL/min/mg | 220 nM | 5.9 µM (≈ 2.73 µg/mL) | 160 μL/min/1E6 | – | –
